Source: BigSolDB 2.1

c1ccc(-c2nnn[nH]2)cc1
Conditions | solubility (mole fraction)
in 1,4-dioxane, 283.15 K | 0.00929
in 1,4-dioxane, 285.65 K | 0.00982
in 1,4-dioxane, 288.15 K | 0.0104
in 1,4-dioxane, 290.65 K | 0.0109
in 1,4-dioxane, 293.15 K | 0.0114
in 1,4-dioxane, 295.65 K | 0.012
in 1,4-dioxane, 298.15 K | 0.0125
in 1,4-dioxane, 300.65 K | 0.0131
in 1,4-dioxane, 303.15 K | 0.0138
in 1,4-dioxane, 305.65 K | 0.0145
in 1,4-dioxane, 308.15 K | 0.0151
in 1,4-dioxane, 310.65 K | 0.0158
in 1,4-dioxane, 313.15 K | 0.0165
in 1,4-dioxane, 315.65 K | 0.0172
in 1,4-dioxane, 318.15 K | 0.018
in 2-butanone, 283.15 K | 0.0156
in 2-butanone, 285.65 K | 0.0163
in 2-butanone, 288.15 K | 0.017
in 2-butanone, 290.65 K | 0.0178
in 2-butanone, 293.15 K | 0.0185
in 2-butanone, 295.65 K | 0.0193
in 2-butanone, 298.15 K | 0.0202
in 2-butanone, 300.65 K | 0.0211
in 2-butanone, 303.15 K | 0.022
in 2-butanone, 305.65 K | 0.023
in 2-butanone, 308.15 K | 0.0239
in 2-butanone, 310.65 K | 0.0249
in 2-butanone, 313.15 K | 0.026
in 2-butanone, 315.65 K | 0.0271
in 2-butanone, 318.15 K | 0.0281
in DMF, 283.15 K | 0.208
in DMF, 285.65 K | 0.22
in DMF, 288.15 K | 0.231
in DMF, 290.65 K | 0.244
in DMF, 293.15 K | 0.257
in DMF, 295.65 K | 0.269
in DMF, 298.15 K | 0.282
in DMF, 300.65 K | 0.296
in DMF, 303.15 K | 0.308
in DMF, 305.65 K | 0.322
in DMF, 308.15 K | 0.336
in DMF, 310.65 K | 0.35
in DMF, 313.15 K | 0.365
in DMF, 315.65 K | 0.379
in DMF, 318.15 K | 0.393
in DMSO, 293.15 K | 0.278
in DMSO, 295.65 K | 0.291
in DMSO, 298.15 K | 0.304
in DMSO, 300.65 K | 0.317
in DMSO, 303.15 K | 0.33
in DMSO, 305.65 K | 0.343
in DMSO, 308.15 K | 0.356
in DMSO, 310.65 K | 0.369
in DMSO, 313.15 K | 0.384
in DMSO, 315.65 K | 0.398
in DMSO, 318.15 K | 0.412
in acetone, 283.15 K | 0.0169
in acetone, 285.65 K | 0.0176
in acetone, 288.15 K | 0.0184
in acetone, 290.65 K | 0.0192
in acetone, 293.15 K | 0.02
in acetone, 295.65 K | 0.0208
in acetone, 298.15 K | 0.0217
in acetone, 300.65 K | 0.0226
in acetone, 303.15 K | 0.0236
in acetone, 305.65 K | 0.0245
in acetone, 308.15 K | 0.0256
in acetone, 310.65 K | 0.0266
in acetone, 313.15 K | 0.0278
in acetone, 315.65 K | 0.029
in acetone, 318.15 K | 0.0302
in acetonitrile, 283.15 K | 0.00181
in acetonitrile, 285.65 K | 0.00197
in acetonitrile, 288.15 K | 0.00216
in acetonitrile, 290.65 K | 0.00236
in acetonitrile, 293.15 K | 0.00253
in acetonitrile, 295.65 K | 0.0028
in acetonitrile, 298.15 K | 0.00307
in acetonitrile, 300.65 K | 0.00331
in acetonitrile, 303.15 K | 0.00359
in acetonitrile, 305.65 K | 0.00389
in acetonitrile, 308.15 K | 0.00421
in acetonitrile, 310.65 K | 0.00449
in acetonitrile, 313.15 K | 0.0049
in acetonitrile, 315.65 K | 0.0052
in acetonitrile, 318.15 K | 0.00555
in cyclohexane, 283.15 K | 3.56e-06
in cyclohexane, 285.65 K | 3.93e-06
in cyclohexane, 288.15 K | 4.34e-06
in cyclohexane, 290.65 K | 4.54e-06
in cyclohexane, 293.15 K | 5.04e-06
in cyclohexane, 295.65 K | 5.38e-06
in cyclohexane, 298.15 K | 5.97e-06
in cyclohexane, 300.65 K | 6.41e-06
in cyclohexane, 303.15 K | 6.91e-06
in cyclohexane, 305.65 K | 7.5e-06
in cyclohexane, 308.15 K | 8.16e-06
in cyclohexane, 310.65 K | 8.97e-06
in cyclohexane, 313.15 K | 9.6e-06
in cyclohexane, 315.65 K | 1.04e-05
in cyclohexane, 318.15 K | 1.11e-05
in ethanol, 283.15 K | 0.0148
in ethanol, 285.65 K | 0.0156
in ethanol, 288.15 K | 0.0164
in ethanol, 290.65 K | 0.0172
in ethanol, 293.15 K | 0.0181
in ethanol, 295.65 K | 0.019
in ethanol, 298.15 K | 0.02
in ethanol, 300.65 K | 0.0209
in ethanol, 303.15 K | 0.022
in ethanol, 305.65 K | 0.023
in ethanol, 308.15 K | 0.0241
in ethanol, 310.65 K | 0.0253
in ethanol, 313.15 K | 0.0264
in ethanol, 315.65 K | 0.0277
in ethanol, 318.15 K | 0.0289
in ethyl acetate, 283.15 K | 0.00628
in ethyl acetate, 285.65 K | 0.00648
in ethyl acetate, 288.15 K | 0.00665
in ethyl acetate, 290.65 K | 0.00691
in ethyl acetate, 293.15 K | 0.00717
in ethyl acetate, 295.65 K | 0.00746
in ethyl acetate, 298.15 K | 0.00773
in ethyl acetate, 300.65 K | 0.00804
in ethyl acetate, 303.15 K | 0.00838
in ethyl acetate, 305.65 K | 0.00878
in ethyl acetate, 308.15 K | 0.00918
in ethyl acetate, 310.65 K | 0.00961
in ethyl acetate, 313.15 K | 0.0101
in ethyl acetate, 315.65 K | 0.0106
in ethyl acetate, 318.15 K | 0.0111
in isopropanol, 283.15 K | 0.0141
in isopropanol, 285.65 K | 0.0147
in isopropanol, 288.15 K | 0.0155
in isopropanol, 290.65 K | 0.0163
in isopropanol, 293.15 K | 0.0171
in isopropanol, 295.65 K | 0.0179
in isopropanol, 298.15 K | 0.0189
in isopropanol, 300.65 K | 0.0198
in isopropanol, 303.15 K | 0.0208
in isopropanol, 305.65 K | 0.0217
in isopropanol, 308.15 K | 0.0227
in isopropanol, 310.65 K | 0.0237
in isopropanol, 313.15 K | 0.0248
in isopropanol, 315.65 K | 0.0257
in isopropanol, 318.15 K | 0.0268
in methanol, 283.15 K | 0.0156
in methanol, 285.65 K | 0.0164
in methanol, 288.15 K | 0.0172
in methanol, 290.65 K | 0.018
in methanol, 293.15 K | 0.0189
in methanol, 295.65 K | 0.0199
in methanol, 298.15 K | 0.0209
in methanol, 300.65 K | 0.0219
in methanol, 303.15 K | 0.023
in methanol, 305.65 K | 0.024
in methanol, 308.15 K | 0.0252
in methanol, 310.65 K | 0.0264
in methanol, 313.15 K | 0.0276
in methanol, 315.65 K | 0.0289
in methanol, 318.15 K | 0.0302
in n-propanol, 283.15 K | 0.0136
in n-propanol, 285.65 K | 0.0142
in n-propanol, 288.15 K | 0.0148
in n-propanol, 290.65 K | 0.0154
in n-propanol, 293.15 K | 0.016
in n-propanol, 295.65 K | 0.0167
in n-propanol, 298.15 K | 0.0174
in n-propanol, 300.65 K | 0.0181
in n-propanol, 303.15 K | 0.0188
in n-propanol, 305.65 K | 0.0196
in n-propanol, 308.15 K | 0.0204
in n-propanol, 310.65 K | 0.0213
in n-propanol, 313.15 K | 0.0221
in n-propanol, 315.65 K | 0.023
in n-propanol, 318.15 K | 0.0239
in toluene, 283.15 K | 2.5e-05
in toluene, 285.65 K | 2.85e-05
in toluene, 288.15 K | 3.35e-05
in toluene, 290.65 K | 3.84e-05
in toluene, 293.15 K | 4.45e-05
in toluene, 295.65 K | 5.09e-05
in toluene, 298.15 K | 5.84e-05
in toluene, 300.65 K | 6.64e-05
in toluene, 303.15 K | 7.62e-05
in toluene, 305.65 K | 8.68e-05
in toluene, 308.15 K | 9.91e-05
in toluene, 310.65 K | 0.000113
in toluene, 313.15 K | 0.000129
in toluene, 315.65 K | 0.000146
in toluene, 318.15 K | 0.000165
